Several values for one entry are separate records, joined by “and”; a condition that tells them apart may be missing. Identical values can stand only once. Records with an inconclusive call do not appear.
System: BDF1 mice, colon carcinoma 38 sc, T/C %
Test: NCI In Vivo Anticancer Drug Screen. Data for tumor model Colon Carcinoma 38 (subcutaneous) in B6D2F1 (BDF1) mice
Settings: endpoint: median tumor weight (est.), higher = larger tumour
Method in brief: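 T/C readout: treated group (T) measurement over vehicle control group (C) measurement. Endpoint is survival or tumor size in mice bearing a transplanted tumor.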

[1] = dose: 12.5 mg/kg/injection, schedule: Q07DX002 (ip), vehicle: saline with Tween-80
[2] = dose: 25.0 mg/kg/injection, schedule: Q07DX002 (ip), vehicle: saline with Tween-80
[3] = dose: 50.0 mg/kg/injection, schedule: Q07DX002 (ip), vehicle: saline with Tween-80
[4] = dose: 100.0 mg/kg/injection, schedule: Q07DX002 (ip), vehicle: saline with Tween-80
[5] = dose: 50.0 mg/kg/injection, schedule: Q07DX002 (ip), vehicle: saline
[6] = dose: 100.0 mg/kg/injection, schedule: Q07DX002 (ip), vehicle: saline
[7] = dose: 200.0 mg/kg/injection, schedule: Q07DX002 (ip), vehicle: saline
[8] = dose: 25.0 mg/kg/injection, schedule: Q07DX002 (ip), vehicle: saline
[9] = dose: 400.0 mg/kg/injection, schedule: Q07DX002 (ip), vehicle: saline
[10] = dose: 12.5 mg/kg/injection, schedule: Q07DX002 (ip), vehicle: Klucel (hydroxypropylcellulose) (HPC)
[11] = dose: 25.0 mg/kg/injection, schedule: Q07DX002 (ip), vehicle: Klucel (hydroxypropylcellulose) (HPC)
[12] = dose: 50.0 mg/kg/injection, schedule: Q07DX002 (ip), vehicle: Klucel (hydroxypropylcellulose) (HPC)
[13] = dose: 100.0 mg/kg/injection, schedule: Q07DX002 (ip), vehicle: Klucel (hydroxypropylcellulose) (HPC)
[14] = dose: 200.0 mg/kg/injection, schedule: Q07DX002 (ip), vehicle: Klucel (hydroxypropylcellulose) (HPC)
[15] = dose: 200.0 mg/kg/injection, schedule: Q07DX002 (ip), vehicle: saline with Tween-80
[16] = dose: 400.0 mg/kg/injection, schedule: Q07DX002 (ip), vehicle: saline with Tween-80
[17] = dose: 12.5 mg/kg/injection, schedule: Q07DX002 (ip), vehicle: saline

SMILES: CC(=O)OC1C2OC3C=C(C)CCC3(CO)C(C)(C1OC(C)=O)C21CO1 (stereo not given)
- T/C (dose: 0.5 mg/kg/injection, schedule: Q07DX003 (ip), vehicle: saline): 50 % of control and 61 % of control
- T/C (dose: 1.0 mg/kg/injection, schedule: Q07DX003 (ip), vehicle: saline): 87 % of control and 101 % of control
- T/C (dose: 2.0 mg/kg/injection, schedule: Q07DX003 (ip), vehicle: saline): 111 % of control and 117 % of control
- T/C (dose: 2.5 mg/kg/injection, schedule: Q01DX001 (ip), vehicle: saline): 266 % of control
- T/C (dose: 4.0 mg/kg/injection, schedule: Q07DX003 (ip), vehicle: saline): 69 % of control and 75 % of control
- T/C (dose: 5.0 mg/kg/injection, schedule: Q01DX001 (ip), vehicle: saline): 231 % of control
- T/C (dose: 10.0 mg/kg/injection, schedule: Q01DX001 (ip), vehicle: saline): 173 % of control

SMILES: C/C=C(\C)C(=O)OC1C(C)=C2C(C1OC(=O)CCCC)C(C)(OC(C)=O)CC(OC(=O)CCCC)C1(O)C2OC(=O)C1(C)O (stereo not given)
- T/C (dose: 1.68 mg/kg/injection, schedule: Q07DX002 (ip), vehicle: Klucel (hydroxypropylcellulose) (HPC)): 54 % of control
- T/C (dose: 3.37 mg/kg/injection, schedule: Q07DX002 (ip), vehicle: Klucel (hydroxypropylcellulose) (HPC)): 87 % of control
- T/C (dose: 6.75 mg/kg/injection, schedule: Q07DX002 (ip), vehicle: Klucel (hydroxypropylcellulose) (HPC)): 61 % of control
- T/C (dose: 13.5 mg/kg/injection, schedule: Q07DX002 (ip), vehicle: Klucel (hydroxypropylcellulose) (HPC)): 105 % of control

SMILES: Clc1ccc(CN2COc3c(ccc4cccnc34)C2)cc1Cl
- T/C [1]: 180 % of control
- T/C [2]: 171 % of control
- T/C [3]: 110 % of control
- T/C [4]: 206 % of control

SMILES: C=C1C(=O)OC2/C=C(\C)CC(O)/C=C(/CO)CC(OC(=O)/C(C)=C/C)C12 (stereo not given)
- T/C (dose: 7.5 mg/kg/injection, schedule: Q07DX002 (ip), vehicle: saline + alcohol): 223 % of control
- T/C (dose: 30.0 mg/kg/injection, schedule: Q07DX002 (ip), vehicle: saline + alcohol): 168 % of control
- T/C (dose: 60.0 mg/kg/injection, schedule: Q07DX002 (ip), vehicle: saline + alcohol): 441 % of control

SMILES: C=C(OP(=O)(OC)OC)Sc1ccccc1C
- T/C (dose: 0.18 mg/kg/injection, schedule: Q07DX002 (ip), vehicle: Klucel (hydroxypropylcellulose) (HPC)): 112 % of control
- T/C (dose: 0.37 mg/kg/injection, schedule: Q07DX002 (ip), vehicle: Klucel (hydroxypropylcellulose) (HPC)): 59 % of control
- T/C (dose: 0.75 mg/kg/injection, schedule: Q07DX002 (ip), vehicle: Klucel (hydroxypropylcellulose) (HPC)): 101 % of control
- T/C (dose: 1.5 mg/kg/injection, schedule: Q07DX002 (ip), vehicle: Klucel (hydroxypropylcellulose) (HPC)): 100 % of control
- T/C (dose: 1.56 mg/kg/injection, schedule: Q07DX002 (ip), vehicle: Klucel (hydroxypropylcellulose) (HPC)): 122 % of control

SMILES: C=C(NC(=O)C(=C)NC(=O)c1csc(C2=NC3c4csc(n4)C4NC(=O)c5csc(n5)C(C(C)(O)C(C)O)NC(=O)C5CSC(=N5)/C(=C/C)NC(=O)C(C(C)O)NC(=O)c5csc(n5)C3(CC2)NC(=O)C(C)NC(=O)C(=C)NC(=O)C(=C)NC(=O)C(C(C)C)NC2C=Cc3c(C(C)O)cc(nc3C2O)C(=O)OC4C)n1)C(N)=O (stereo not given)
- T/C (dose: 12.5 mg/kg/injection, schedule: Q07DX002 (ip), vehicle: suspension in saline): 95 % of control
- T/C (dose: 25.0 mg/kg/injection, schedule: Q07DX002 (ip), vehicle: suspension in saline): 98 % of control
- T/C (dose: 50.0 mg/kg/injection, schedule: Q07DX002 (ip), vehicle: suspension in saline): 111 % of control
- T/C (dose: 100.0 mg/kg/injection, schedule: Q07DX002 (ip), vehicle: suspension in saline): 72 % of control
- T/C (dose: 200.0 mg/kg/injection, schedule: Q07DX002 (ip), vehicle: suspension in saline): 75 % of control
- T/C (dose: 400.0 mg/kg/injection, schedule: Q07DX002 (ip), vehicle: suspension in saline): 86 % of control

SMILES: CN(CCN(C)C(=O)CCOS(C)(=O)=O)C(=O)CCOS(C)(=O)=O
- T/C [5]: 75 % of control and 94 % of control
- T/C [6]: 48 % of control and 63 % of control
- T/C [7]: 25 % of control and 43 % of control

SMILES: O=C1C=CC(=O)N1c1ccc(Cl)cc1
- T/C (dose: 1.25 mg/kg/injection, schedule: Q07DX002 (ip), vehicle: Klucel (hydroxypropylcellulose) (HPC)): 32 % of control
- T/C (dose: 10.0 mg/kg/injection, schedule: Q07DX002 (ip), vehicle: Klucel (hydroxypropylcellulose) (HPC)): 61 % of control and 73 % of control
- T/C (dose: 20.0 mg/kg/injection, schedule: Q07DX002 (ip), vehicle: Klucel (hydroxypropylcellulose) (HPC)): 60 % of control and 67 % of control

SMILES: c1csc(C[N+]23CN4CN(CN(C4)C2)C3)c1
- T/C [8]: 77 % of control
- T/C [5]: 108 % of control
- T/C [6]: 81 % of control
- T/C [7]: 97 % of control
- T/C [9]: 112 % of control

SMILES: CCN(CC)c1ccc2cc(-c3nc4ccccc4n3C)c(=O)oc2c1
- T/C [10]: 112 % of control
- T/C [11]: 120 % of control
- T/C [12]: 85 % of control
- T/C [13]: 62 % of control

SMILES: CCc1ccc(C2=C(O)C(=O)C(c3ccccc3)=C(O)C2=O)cc1
- T/C [10]: 101 % of control
- T/C [11]: 81 % of control
- T/C [12]: 50 % of control

SMILES: Oc1c(Cl)cc(Cl)cc1C=NCCSc1ccc(Cl)cc1
- T/C [12]: 85 % of control
- T/C [13]: 78 % of control
- T/C [14]: 162 % of control

SMILES: Nc1ccn(C2OC(CO)C(O)C2O)c(=O)n1 (stereo not given)
- T/C [6]: 69 % of control
- T/C (dose: 150.0 mg/kg/injection, schedule: Q07DX002 (ip), vehicle: saline): 74 % of control
- T/C [9]: 75 % of control and 95 % of control
- T/C (dose: 600.0 mg/kg/injection, schedule: Q07DX002 (ip), vehicle: saline): 29 % of control and 43 % of control
- T/C (dose: 800.0 mg/kg/injection, schedule: Q07DX002 (ip), vehicle: saline): 35 % of control
- T/C (dose: 1200.0 mg/kg/injection, schedule: Q07DX002 (ip), vehicle: saline): 44 % of control and 55 % of control

SMILES: Cc1c(-c2ccc(C3CCCCC3)cc2)nc2ccc(F)cc2c1C(=O)O
- T/C [12]: 89 % of control
- T/C [13]: 80 % of control
- T/C [14]: 116 % of control
- T/C (dose: 400.0 mg/kg/injection, schedule: Q07DX002 (ip), vehicle: Klucel (hydroxypropylcellulose) (HPC)): 86 % of control
- T/C (dose: 400.0 mg/kg/injection, schedule: Q07DX002 (ip), vehicle: Klucel + Tween-80): 120 % of control
- T/C (dose: 800.0 mg/kg/injection, schedule: Q07DX002 (ip), vehicle: Klucel (hydroxypropylcellulose) (HPC)): 107 % of control
- T/C (dose: 800.0 mg/kg/injection, schedule: Q07DX002 (ip), vehicle: Klucel + Tween-80): 80 % of control

SMILES: C/C(=N\NC(N)=O)c1cccc(/C(C)=N/NC(N)=O)n1
- T/C [1]: 87 % of control and 94 % of control
- T/C [2]: 66 % of control and 71 % of control
- T/C [3]: 73 % of control and 96 % of control
- T/C [15]: 96 % of control
- T/C [16]: 57 % of control

SMILES: O=NNc1ccccn1
- T/C (dose: 1.56 mg/kg/injection, schedule: Q07DX002 (ip), vehicle: saline): 98 % of control
- T/C (dose: 3.12 mg/kg/injection, schedule: Q07DX002 (ip), vehicle: saline): 85 % of control and 96 % of control
- T/C (dose: 6.25 mg/kg/injection, schedule: Q07DX002 (ip), vehicle: saline): 110 % of control
- T/C [17]: 120 % of control and 106 % of control
- T/C [5]: 95 % of control

SMILES: NC(=O)NO
- T/C [8]: 99 % of control
- T/C [5]: 69 % of control
- T/C [6]: 99 % of control
- T/C (dose: 100.0 mg/kg/injection, schedule: Q07DX003 (ip), vehicle: saline): 152 % of control
- T/C [7]: 78 % of control
- T/C (dose: 200.0 mg/kg/injection, schedule: Q07DX003 (ip), vehicle: saline): 43 % of control and 60 % of control
- T/C [9]: 88 % of control
- T/C (dose: 800.0 mg/kg/injection, schedule: Q07DX003 (ip), vehicle: saline): 39 % of control

SMILES: O=C1CN(CN2CCOCC2)C(=O)CN1CN1CCOCC1
- T/C [17]: 115 % of control
- T/C [5]: 116 % of control and 107 % of control
- T/C [6]: 115 % of control
- T/C [9]: 50 % of control

SMILES: OCCCN1CCCCC1CO (stereo not given)
- T/C [8]: 91 % of control
- T/C [5]: 110 % of control
- T/C [6]: 108 % of control
- T/C [7]: 99 % of control
- T/C [9]: 98 % of control

SMILES: Cc1ccc2c(c1)n([O-])c1cc(Cl)ccc1[n+]2=O
- T/C [2]: 118 % of control
- T/C [3]: 102 % of control
- T/C [4]: 78 % of control
- T/C [15]: 76 % of control
- T/C [16]: 79 % of control
